pIC50: −log10 of the molar value.
Biological target: T1, human OX2R (Homo sapiens, UniProt O43614)
T1 construct: expressed in transfected cells; host or cells: Chinese hamster ovary (CHO) cells, kept under G418 selection
T1 sequence (O43614 1-444): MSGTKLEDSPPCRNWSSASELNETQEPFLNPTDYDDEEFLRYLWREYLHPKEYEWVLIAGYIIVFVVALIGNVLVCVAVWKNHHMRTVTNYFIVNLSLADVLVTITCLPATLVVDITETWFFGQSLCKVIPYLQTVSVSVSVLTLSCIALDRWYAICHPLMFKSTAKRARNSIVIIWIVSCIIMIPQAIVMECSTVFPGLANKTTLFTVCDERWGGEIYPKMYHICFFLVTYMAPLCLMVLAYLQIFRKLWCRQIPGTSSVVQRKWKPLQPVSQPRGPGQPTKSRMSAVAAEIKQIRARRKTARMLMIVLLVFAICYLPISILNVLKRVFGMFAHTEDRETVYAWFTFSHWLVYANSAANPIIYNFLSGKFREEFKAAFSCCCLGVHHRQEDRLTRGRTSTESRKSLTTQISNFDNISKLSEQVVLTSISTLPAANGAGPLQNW
Assay: IPOne (IP-1 accumulation) assay of orexin receptor agonist activity in CHO cells expressing human OX2R
Assay type: cell-based

pIC50 (CHO cells expressing human OX2R, IP-One assay, 2 hours incubation, four parameter logistic fit, read-out: hOX2R_IP IC50): 5.30 | Emax (CHO, percent activity at maximum tested concentration, relative to reference compound at 1 uM (100% activity) for human OX2R): 94.5%
Structure (SMILES): O=C(NCc1ccc2ccccc2c1)C1CN(S(=O)(=O)c2ccccc2F)CCN1C(=O)c1cccs1 (centres unmarked) [Example 89-11, 4-[(2-fluorophenyl)sulfonyl]-N-[(naphthalen-2-yl)methyl]-1-(thiophene-2-carbonyl)piperazine-2-carboxamide]
